In ChEMBL document CHEMBL3861975, “Discovery and Rational Design of Natural-Product-Derived 2-Phenyl-3,4-dihydro-2H-benzo[f]chromen-3-amine Analogs as Novel and Potent Dipeptidyl Peptidase 4 (DPP-4) Inhibitors for the Treatment of Type 2 Diabetes” (J Med Chem, 2016):
The source made the active and inactive calls. The rule behind the calls is not given here.

Columns and labels:
[1] = Half life in Sprague-Dawley rat at 1 mg/kg, iv by LC-MS/MS method; assay type: ADME, organism-based; settings: in vivo
[2] = AUC (0 to t) in Sprague-Dawley rat at 1 mg/kg, iv by LC-MS/MS method; assay type: ADME, organism-based; settings: in vivo
[3] = AUC (0 to infinity) in Sprague-Dawley rat at 1 mg/kg, iv by LC-MS/MS method; assay type: ADME, organism-based; parameters: dose 1 mg/kg, route intravenous, time infinity; settings: in vivo
[4] = Clearance in Sprague-Dawley rat at 1 mg/kg, iv by LC-MS/MS method; assay type: ADME, organism-based; settings: in vivo
[5] = Mean residence time (0 to infinity) in Sprague-Dawley rat at 1 mg/kg, iv by LC-MS/MS method; assay type: ADME, organism-based; settings: in vivo
[6] = Volume of distribution at steady state in Sprague-Dawley rat at 1 mg/kg, iv by LC-MS/MS method; assay type: ADME, organism-based; settings: in vivo, read-out: Vdss
[7] = Half life in Sprague-Dawley rat at 2 mg/kg, po by LC-MS/MS method; assay type: ADME, organism-based; settings: in vivo
[8] = AUC (0 to t) in Sprague-Dawley rat at 2 mg/kg, po by LC-MS/MS method; assay type: ADME, organism-based; settings: in vivo
[9] = AUC (0 to infinity) in Sprague-Dawley rat at 2 mg/kg, po by LC-MS/MS method; assay type: ADME, organism-based; parameters: dose 2 mg/kg, route oral, time infinity; settings: in vivo
[10] = Cmax in Sprague-Dawley rat at 2 mg/kg, po by LC-MS/MS method; assay type: ADME, organism-based; parameters: dose 2 mg/kg, route oral; settings: in vivo
[11] = Mean residence time (0 to infinity) in Sprague-Dawley rat at 2 mg/kg, po by LC-MS/MS method; assay type: ADME, organism-based; settings: in vivo
[12] = Tmax in Sprague-Dawley rat at 2 mg/kg, po by LC-MS/MS method; assay type: ADME, organism-based; settings: in vivo
[13] = Oral bioavailability in Sprague-Dawley rat at 2 mg/kg by LC-MS/MS method; assay type: ADME, organism-based; settings: in vivo
[14] = tested on: Mus musculus; test: Improvement in glucose tolerance in ICR mouse at 1 to 10 mg/kg, po administered as single dose 60 mins before glucose challenge and measured 30 to 60 mins post glucose challenge by OGTT method; assay type: functional, organism-based
[15] = species: Mus musculus; settings: 1 to 10 mg/kg
[16] = species: Mus musculus; test: animal or person; settings: ICR, ip, 24 h, read-out: INH
Description: (§1) In-vivo inhibition of DPP4 in ICR mouse at 5 mg/kg, ip administered as single dose using Gly-Pro-AMC as substrate after 24 hrs post dose by continuous fluorometric assay

[17] = species: Mus musculus; test: animal or person; settings: po, 24 h, read-out: INH
[18] = species: Mus musculus; test: animal or person; settings: po, 24 h, read-out: INH; remark: listed apart in the source
[19] = species: Mus musculus; test: animal or person; settings: po, 24 h, read-out: INH; remark: listed apart in the source
[20] = tested on: Mus musculus; test: In-vivo inhibition of DPP4 in B6.V-Lep'ob/Lep'ob (ob/ob) mouse at 3 mg/kg, po administered as single dose using Gly-Pro-AMC as substrate after 24 hrs post dose by continuous fluorometric assay; assay type: functional, organism-based
[21] = species: Mus musculus; settings: ICR, 5 mg/kg
Description: as §1

Row | SMILES | half-life [1] | AUCt [2] | AUC [3] | clearance [4] | MRT inf [5] | Vd [6] | half-life [7] | AUCt [8] | AUC [9] | Cmax [10] | MRT inf [11] | Tmax [12] | bioavailability [13] | other results
1 | COc1cc2ccc3c(c2cc1OC)C[C@H](N)[C@@H](c1cc(F)c(F)cc1F)O3 | 3.87 h | 3380.54 µg/L/h | 3415 µg/L/h | 5 mL/min/kg | 4.87 h | 1.66 L/kg | 3.05 h | 6052.89 µg/L/h | 6091.31 µg/L/h | 502 ng/mL | 6.33 h | 4.67 h | 89.2% | Activity [14]: Dose-dependent effect; inhibition [15]: Dose-dependent effect; inhibition in vivo at 5 mg/kg [16]: ≤ 80%; inhibition in vivo at 1 mg/kg [17]: > 80%; inhibition in vivo at 3 mg/kg [18]: > 80%; inhibition in vivo at 10 mg/kg [19]: > 80%
2 | COc1cc2c3c(ccc2cc1S(C)(=O)=O)O[C@H](c1cc(F)c(F)cc1F)[C@@H](N)C3 | 5.35 h | 24208.7 µg/L/h | 25460.37 µg/L/h | 0.667 mL/min/kg | 7.56 h | 0.63 L/kg | 6.83 h | 26527.6 µg/L/h | 26373.69 µg/L/h | 2320 ng/mL | 9.05 h | 4.67 h | 54.8% | 
3 | CS(=O)(=O)n1cc2c(n1)CN([C@H]1CO[C@H](c3cc(F)ccc3F)[C@@H](N)C1)C2 |  |  |  |  |  |  |  |  |  |  |  |  |  | inhibition [20]: Active; inhibition [21]: Active
